# Test results: patent US20050101618A1, “Selective erbB2 inhibitor/anti-erbB antibody combinations in the treatment of cancer” (Pfizer Inc, priority 2003, published 2005)
# How the values were obtained:
# [1] = Body weight and tolerability in BT-474 tumor-bearing mice
# Protocol: Cells were inoculated SC (5 million cells/animal) into female athymic mice. […] The tumor measurements and body weight changes were obtained on days 1, 5, 8, 12, 15, 19, 22, 26 and 28. Tumor volume was calculated by the following formula: Tumor volume (mm^3)=(W×W)/2×L (L=length & W=width).
# • Values given represent the average tumor volume (mm^3) ±SE; Values in parenthesis are the average body weight (g). • % Growth Inhibition=[Tumor volume on day 28 of treated group (mm^3)×100/Tumor volume on day 28 of vehicle group (mm^3)]−100 • % Regression=[Tumor volume on day 28 (mm^3)×100/Tumor volume on day 1(mm^3)]−100
# [2] = target: T1, erbB2-autophosphorylation (p-erbB2) (Homo sapiens, UniProt P04626); test: Tumor p-erbB2 reduction (PD) by ELISA in BT-474 tumor-bearing mice; assay type: in vivo; conditions: 0.5 hr after dosing on day 28
# T1 construct: endogenous in cells; host or cells: BT-474 human breast adenocarcinoma cells grown as subcutaneous xenografts in female athymic mice
# Protocol: (§1) Whole blood samples (˜50 μl) were collected at 0.5, 1, 2, 4 & 8 h post-dose on day 28 for PK analysis as described below. Tumors were isolated 0.5 h post-dose on day 28 for PD analysis by ELISA.
# The p-erbB2 levels, i.e., the level of the phosphorylated form of erbB2, were also determined in tumor samples of all groups at 0.5 hr post-dosing on day 28 (Table 5).
# [3] = Whole blood pharmacokinetics of agent 182 in BT-474 tumor-bearing mice (LC-MS/MS); assay type: in vivo; conditions: for Cmax: mouse; for Cave0-2 h of Agent 182: day 28
# Protocol: as §1
# Blood Sample Analysis: Aliquots (100 μL) of whole blood were diluted with 100 μL acetonitrile (25%) containing an internal standard (CP-702,453, 0.5 μg/ml). Samples were extracted with methyl-tert-butyl ether (MTBE) and 0.1M sodium hydroxide by liquid-liquid extraction using a 96-well technology. After brief vortexing, samples were centrifuged (3000 rpm for 10 min) and the supernatant was transferred into a 96-well plate and evaporated to dryness at 40° C. under a slow stream of nitrogen gas. The residue was reconstituted with 200 μL of 25% acetonitrile and vortexed for approximately 2 min.
# The mobile phase was delivered as 90% 10 mM ammonium acetate with 0.1% formic acid and 10% acetonitrile for the first 1 min followed by a linear gradient from 10% to 90% acetonitrile over 1 min. Then the mobile phase was delivered isocratically at 90% acetonitrile for 1 min before a subsequent gradient back to 10% acetonitrile over 0.1 min. The column was then allowed to re-equilibrate at 90% 10 mM ammonium acetate with 0.1% formic acid and 10% acetonitrile for 1.0 min before the next sample injection.
# Data collection and integration were accomplished using Analyst (version 1.2). The ratio of peak area responses of drug relative to internal standard was used to construct a standard curve using a linear least squares regression with a 1/x weighting. The dynamic range of the assay was 1.0 to 1000 ng/mL. The performance of the assay was monitored by inclusion of quality control samples prepared in mouse whole blood from a separate weighing. Further details are located in notebook #62874.
# PK Data Calculation: Pharmacokinetic parameters were determined by the noncompartmental methods using WinNonLin™, version 3.2. The maximum whole blood concentration (Cmax) and the time at which this concentration was achieved (Tmax) were directly taken from the raw data. Area under the whole blood concentration versus time curve (AUC) was calculated using linear trapezoidal approximation. For estimation of the means and pharmacokinetic parameters, concentrations at the 0 hr and those <LLOQ (1 ng/mL) were assumed to be 0 ng/mL. The means were calculated only if more than 50% of the data exceeded LLOQ of the assay.
# [4] = test system: BT-474 human breast adenocarcinoma; test: BT-474 xenograft tumor growth inhibition in athymic female mice; assay type: in vivo
# Protocol: The activity of the compounds of formula 1, in vivo, can be determined by the amount of inhibition of tumor growth by a test compound relative to a control. The tumor growth inhibitory effects of various compounds are measured according to the method of Corbett T. H., et al., “Tumor Induction Relationships in Development of Transplantable Cancers of the Colon in Mice for Chemotherapy Assays, with a Note on Carcinogen Structure”, Cancer Res., 35, 2434-2439 (1975) and Corbett T. H., et al., “A Mouse Colon-tumor Model for Experimental Therapy”, Cancer Chemother. Rep. (Part 2)”, 5, 169-186 (1975), with slight modifications. Tumors are induced in the left flank by subcutaneous (sc) injection of 5 million log phase cultured tumor cells (BT-474 human breast adenocarcinoma) suspended in Matrigel (1:1 in PBS). […] Rep., 3, 1-104 (1972). Results are expressed as percent inhibition, according to the formula: Inhibition (%)=(TuWcontrol−TuWtest)/TuWcontrol×100%. The flank site of tumor implantation provides reproducible dose/response effects for a variety of chemotherapeutic agents, and the method of measurement (tumor diameter) is a reliable method for assessing tumor growth rates.
# Statistical Analysis: The statistical analysis of tumor growth was done using SAS Version 8, PROC GLM by Non-clinical statistical group.
# T1 sequence (P04626 23-1255): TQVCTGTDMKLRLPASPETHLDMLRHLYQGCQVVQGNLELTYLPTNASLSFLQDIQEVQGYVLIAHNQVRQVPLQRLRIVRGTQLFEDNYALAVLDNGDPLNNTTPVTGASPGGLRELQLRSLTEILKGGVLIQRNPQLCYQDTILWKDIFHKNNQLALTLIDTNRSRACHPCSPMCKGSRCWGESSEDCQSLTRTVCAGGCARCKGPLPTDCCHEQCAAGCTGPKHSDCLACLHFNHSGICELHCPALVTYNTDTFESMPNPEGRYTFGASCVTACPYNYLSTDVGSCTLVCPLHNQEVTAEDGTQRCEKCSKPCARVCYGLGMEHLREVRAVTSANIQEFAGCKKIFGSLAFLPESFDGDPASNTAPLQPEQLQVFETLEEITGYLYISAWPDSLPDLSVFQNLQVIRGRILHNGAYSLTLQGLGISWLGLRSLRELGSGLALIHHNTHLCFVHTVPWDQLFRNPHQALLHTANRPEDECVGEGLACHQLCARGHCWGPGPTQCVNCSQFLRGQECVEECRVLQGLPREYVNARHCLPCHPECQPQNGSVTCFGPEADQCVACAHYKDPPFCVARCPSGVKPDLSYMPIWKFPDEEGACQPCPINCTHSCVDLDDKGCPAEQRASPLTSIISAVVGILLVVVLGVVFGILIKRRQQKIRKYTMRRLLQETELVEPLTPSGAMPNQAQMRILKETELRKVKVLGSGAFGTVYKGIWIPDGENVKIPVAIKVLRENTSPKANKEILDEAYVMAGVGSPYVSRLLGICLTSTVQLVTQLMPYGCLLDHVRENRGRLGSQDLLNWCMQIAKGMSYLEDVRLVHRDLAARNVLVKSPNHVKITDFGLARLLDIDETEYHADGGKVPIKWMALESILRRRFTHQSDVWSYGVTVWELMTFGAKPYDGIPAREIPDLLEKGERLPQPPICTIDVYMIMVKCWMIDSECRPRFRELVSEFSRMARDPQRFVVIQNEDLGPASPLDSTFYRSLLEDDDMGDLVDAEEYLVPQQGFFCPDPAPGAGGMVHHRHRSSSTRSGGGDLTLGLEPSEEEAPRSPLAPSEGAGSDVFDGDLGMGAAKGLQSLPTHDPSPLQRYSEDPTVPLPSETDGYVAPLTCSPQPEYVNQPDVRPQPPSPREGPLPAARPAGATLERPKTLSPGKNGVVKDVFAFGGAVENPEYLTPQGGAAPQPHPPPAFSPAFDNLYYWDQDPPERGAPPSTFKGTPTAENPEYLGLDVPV
smiles,measurement,setting,value
"COCC(=O)NC/C=C/c1ccc2ncnc(Nc3ccc(Oc4ccc(C)nc4)c(C)c3)c2c1 [Agent 182, E-2-Methoxy-N-(3-{4-[3-methyl-4-(6-methyl-pyridin-3-yloxy)-phenylamino]-quinazolin-6-yl}-allyl)-acetamide]",Average body weight Day 1,[1]; Agent 182 25 mg/kg PO QD,(21) g
same,Average body weight Day 1,[1]; Agent 182 50 mg/kg PO QD,(23) g
same,Average body weight Day 28,[1]; Agent 182 25 mg/kg PO QD,(23) g
same,Average body weight Day 28,[1]; Agent 182 50 mg/kg PO QD,(25) g
same,% Reduction of erbB2-autophosphorylation,"[2]; Agent 182 25 mg/kg PO QD, 25 mg/kg",16 ± 5 (N = 3) %
same,% Reduction of erbB2-autophosphorylation,"[2]; Agent 182 25 mg/kg PO QD, listed as agent 182, 25 mg/kg",Approximately 16%
same,% Reduction of erbB2-autophosphorylation,[2]; Agent 182 50 mg/kg PO QD,57 ± 5 (N = 4) %
same,Cmax,"[3]; female, athymic, whole blood, po, 25 mg/kg",365 ng/mL
same,Cmax,"[3]; female, athymic, whole blood, po, 50 mg/kg",2440 ± 740 ng/mL
same,Cmax,"[3]; in vivo, 25 mg/kg group, earlier observations",417 to 967 ng/mL
same,Cave0-2 h of Agent 182,"[3]; whole blood, Agent 182 25 mg/kg PO QD",186 ± 71 ng/mL
same,Cave0-2 h of Agent 182,"[3]; whole blood, Agent 182 50 mg/kg PO QD",1050 ± 330 ng/mL
same,% Growth inhibition,"[4]; 28 days, Agent 182 50 mg/kg PO QD",40%
same,Tumor volume Day 28,[4]; Agent 182 25 mg/kg PO QD,327 ± 45 mm^3
same,Tumor volume Day 28,[4]; Agent 182 50 mg/kg PO QD,246 ± 36 mm^3
same,Efficacy against BT-474 tumors which over-express erbB2,[4]; background statement,efficacious
